Tests used:
[1] = test system: IMR-32 cells; assay: Metabolic activity assay (MTS); assay type: cell-based, human
Method: In vitro hypoxia was induced in the cell cultures by using our recently described system with minor modifications (Huang et al., 2013b; Weber et al., 2015; Zitta et al., 2010). Enzyme stock solutions (100×) of catalase and glucose oxidase (both from Sigma-Aldrich) were prepared in cell culture medium (DMEM/F12, 1% FCS; final concentration: 120 U/ml and 2 U/ml respectively; Sigma-Aldrich) leading to a decrease of partial pressure of oxygen (pO2) below 10 mmHg within 5 minutes. Hypoxic conditions were confirmed by using a tissue oxygen pressure monitor (LICOX® CMP Oxygen Catheter; Integra, Plainsboro, USA). After 7 hours of hypoxia, the cells were washed twice with PBS (PAA) and fresh normoxic medium supplemented with solvent (citrate buffer 1%) or 2-IB (10, 30, 50, 100 and 300 ng/mL) was added to the cells. Investigations of cell damage, metabolic activity, ROS, hydrogen peroxide, nitrite/nitrate production, erkl/2, akt and stat5 phosphorylation as well as cell stress protein expression were performed with cell culture media or cell protein (FIG. 1).
Metabolically active cells were evaluated by using a colorimetric kit (CELLTITER96® AQueous One Solution Reagent G3580 Promega Madison, Wis., USA). Samples were prepared concerning to the manufacturer's protocol. Briefly, 4×10^4 cells were seeded per well in a 96-well plate with 100 μl DMEM/F12 supplemented with 10% FCS per well. After 2 days in culture, normoxia or hypoxia was applied for 7 hours followed by the addition of 2-IB or the respective solvent control (citrate 1%) for 17 hours. After that, 20 μl of […] reagent were added to each well for 2.5 hours at 37° C. Metabolic active cells generate a colored product, the absorbance of which was measured at 490 nm using an ELISA reader (Tecan, Crailsheim, Austria) in combination with the Magellan software v1.1.

[2] = test system: IMR-32 cells; assay: Hydrogen peroxide in culture medium; assay type: cell-based, human; conditions: 30 ng/ml 2-IB, data not shown
[3] = test system: IMR-32 cell cultures; assay: Hydrogen peroxide after hypoxia under mild hypothermia; assay type: cell-based, human; conditions: post-hypoxic application
Method: In-vitro hypoxia was induced for 7 hours using IMR-32 cell cultures. After the hypoxic insult, cultures were subjected to 25 hours of mild hypothermia (33.5° C.) and were incubated with or without 2-IB (10, 30, 50, 100 and 300 ng/ml). Cell morphology was evaluated by brightfield microscopy and cell damage was analyzed by LDH assays. Production of reactive oxygen species (ROS) was measured using fluorometric assays. Western blotting for PARP and phosphorylated as well as unphosphorylated akt and erkl/2 was performed.

[4] = test system: 4VO rat model; assay: Histology, living neurons in CA1 region of hippocampus after 4VO; assay type: in vivo; conditions: 33 days after insult
Method: The rats were anesthetized using ketamine (90 mg/kg) and xylazine sodium ([…]), as described earlier (Meilin et al., 2014). The first cervical vertebrata was exposed and the vertebral arteries were permanently occluded by electrocauterization. The common carotid arteries were isolated through a ventral midline neck incision and lifted using a 4.0 silk suture ligature, placed around them.
Twenty-four hours post vertebral arterial occlusion, the animals were reanesthetized using isoflurane. The common carotid arteries were exposed and occluded using microaneurysm clips for 15 minutes. After removing the clips reperfusion occurred. The skin of the incision at the neck was sutured using 4-0 silk suture. During the operation animal's core temperature was monitored using a rectal probe (Model 400; YSI Inc., Yellow Springs, Ohio, USA) connected to a thermometer (Model 8402-00; Cole-Parmer Instrument Co. Ltd, London, UK). The ischemic insult was initiated when a rectal temperature of 37-38° C. was achieved, and this temperature was maintained throughout the procedure using a heating mattress.
During the acclimatization period rats were randomly assigned to experimental groups. The animals were subjected to 4VO per cage or one rat per cage was subjected to HI. Rats received either vehicle (normal saline at pH 3.8-4.0) or 2-IB (1.1 mg/kg, 3.3 mg/kg, 10 mg/kg and 30 mg/kg dissolved in 5 ml/kg normal saline at pH 3.8-4.0). Each dosing group was kept in separate cages to avoid cross-contamination by consuming stools during the study period. The experimental groups were as follows.
Rats were sacrificed at 33 days after the insult with an overdose of pentobarbital sodium (100 mg/kg i.p.). Histological analysis was performed in at least 9 rats for each group. The brains of the other 3 rats per group were snap frozen in liquid nitrogen and were stored for future analysis. The brain was perfused via the left ventricle with heparinised normal saline to remove the excess of blood from the brain. Afterwards the brain was perfused with 4% paraformaldehyde phosphate-buffered saline. The whole brain was removed and immersed in formaldehyde for at least another 72 hours. Brains were embedded in paraffin. Coronal sections ([…]) were cut at approximately 3.3 mm from the bregma and stained with hematoxylin-eosin. Sections were scored in a blinded way for living neurons in the right and left part of the CA1 region of the hippocampus, the most damaged area in this model of global ischemia. This was also considered a secondary outcome parameter.

[5] = Toxicokinetics, repeated i.v. pulse infusions to adult rats; assay type: in vivo, rat; conditions: for mean AUC 0-4-hour: 6.6 mg/kg per 15-minute i.v. pulse, first and last pulse
Method: The toxicokinetics of 2-IB was studied over a 96-hour period by i.v. pulse infusions to adult rats. The purpose of this study was to generate toxicokinetic parameters (Cmax, tmax, AUC, t1/2) from 2-IB plasma concentrations in male and female rats after repeated i.v. infusion.
Group 1 received vehicle only. Systemic exposure was monitored on day 0 and day 4. Blood sampling was conducted at 15 minutes and 0.5, 1 and 4 hours after the first infusion, and 15 minutes and 0.5, 1, 4, 8 and 24 hours following the last dose.

N=C1N[C@H]2[C@H](CS[C@H]2CCCCC(=O)O)N1 [2-IB, 2-iminobiotin]
metabolic activity ([1]; 10 ng/ml 2-IB, hypoxia): 0.44±0.10 a.u.
metabolic activity ([1]; 10 ng/ml 2-IB, normoxia, 17 hours after hypoxia): 0.44±0.08 a.u.
metabolic activity ([1]; 30 ng/ml 2-IB, hypoxia): 0.45±0.09 a.u.
metabolic activity ([1]; 30 ng/ml 2-IB, normoxia): 0.49±0.08 a.u.
metabolic activity ([1]; 50 ng/ml 2-IB, hypoxia): 0.41±0.06 a.u.
metabolic activity ([1]; 50 ng/ml 2-IB, normoxia): 0.50±0.08 a.u.
metabolic activity ([1]; 100 ng/ml 2-IB, hypoxia): 0.33±0.06 a.u.
metabolic activity ([1]; 100 ng/ml 2-IB, normoxia): 0.58±0.09 a.u.
metabolic activity ([1]; 300 ng/ml 2-IB, hypoxia): 0.33±0.07 a.u.
metabolic activity ([1]; 300 ng/ml 2-IB, normoxia): 0.63±0.09 a.u.
hypoxia-induced reduction of metabolic activity, most efficient concentrations ([1]; 10-300 ng/ml tested, P<0.01 vs. control): most efficiently counteracted by 10, 30 and 50 ng/ml 2-IB
hypoxia-induced release of hydrogen peroxide [2]: did not attenuate the hypoxia-induced release of hydrogen peroxide
generation of hydrogen peroxide [3]: did not influence generation of hydrogen peroxide
surviving cells in the CA1 region ([4]; 1.1 mg/kg/dose s.c.): 29±34
surviving cells in the CA1 region ([4]; 3.3 mg/kg/dose s.c.): 71±61
surviving cells in the CA1 region ([4]; 10 mg/kg/dose s.c.): 63±54
surviving cells in the CA1 region ([4]; 30 mg/kg/dose s.c.): 50±51
mean AUC 0-4-hour ([5]; 1st of four values printed for male and female rats): 2310 ng·h/mL
mean AUC 0-4-hour ([5]; 2nd of four values printed for male and female rats): 2530 ng·h/mL
mean AUC 0-4-hour ([5]; 3rd of four values printed for male and female rats): 1750 ng·h/mL
mean AUC 0-4-hour ([5]; 4th of four values printed for male and female rats): 1950 ng·h/mL
overall mean AUC 0-4-hour ([5]; 6.6 mg/kg per pulse, across sexes and first and last pulses): about 2135 ng·h/mL
AUC expected ([5]; rat, 3.3 mg/kg dose level, assuming linear PK): about 1068 ng·h/mL

Reference: US10722496B2, “2-iminobiotin for use in the treatment of brain cell injury” (Neurophyxia B.V., priority 2015, dated 2020)
